How the values were obtained:
OCT2 [1] = biological target: T1, OCT2 (Homo sapiens, UniProt O15244); assay: Inhibition of OCT2-mediated [3H]MPP+ uptake in HEK-OCT2 cells
Method: (§1) For the transport assays HEK cell lines stably transfected with human OCT2 (HEK-OCT2) or the vector only (HEK-VC) were used. The HEK-OCT2 cell line was established and characterized previously. HEK-OCT2 and HEK-VC cells were seeded in poly-D-lysine (Sigma Aldrich, Taufkirchen, Germany) coated 48-well-plates at a density of 1.2 x 10^5 cells/well. […] Uptake was stopped by washing the cells three times with ice-cold uptake buffer. Afterwards, cells were lysed with 5 mM Tris buffer (pH 7.3) containing 0.1% Triton X-100. The intracellular accumulation of radioactivity was determined by liquid scintillation counting (PerkinElmer, Rodgau-Jügesheim, Germany) and protein concentration of each lysate was measured with bicinchonic acid assay (BCA Protein Assay Kit, Thermo Fisher Scientific, Waltham, MA, USA). We performed two to eight experiments each on at least two separate days, i.e., n = 4–16.

OCT2 [2] = biological target: T1, OCT2; assay: in vitro; details: human, pH 7.3
Method: as §1
Experimental half-maximal inhibitory concentrations (IC50 values) were measured as the substrate uptake in the presence of increasing concentrations of test drugs. These experiments were performed as described above (three experiments each on two separate days, i.e., n = 6). IC50 values were calculated with GraphPad Prism 5.0 (GraphPad Software, San Diego, CA, USA). IC50 was estimated by a sigmoidal inhibition model and was fit to the equation V = V 0 / (1 + (I / IC50 ) ^n ) by nonlinear regression. V is the net uptake in the presence of the inhibitor, V 0 is the net uptake in the absence of the inhibitor, I is the concentration of the inhibitor and n is the slope.

[3] = test drug 20 µM, MPP+ 50 μM, 3 min, net uptake HEK-OCT2 minus HEK-VC
[4] = test drug 200 µM, MPP+ 50 μM, 3 min, net uptake HEK-OCT2 minus HEK-VC

T1 sequence (O15244 whole entry): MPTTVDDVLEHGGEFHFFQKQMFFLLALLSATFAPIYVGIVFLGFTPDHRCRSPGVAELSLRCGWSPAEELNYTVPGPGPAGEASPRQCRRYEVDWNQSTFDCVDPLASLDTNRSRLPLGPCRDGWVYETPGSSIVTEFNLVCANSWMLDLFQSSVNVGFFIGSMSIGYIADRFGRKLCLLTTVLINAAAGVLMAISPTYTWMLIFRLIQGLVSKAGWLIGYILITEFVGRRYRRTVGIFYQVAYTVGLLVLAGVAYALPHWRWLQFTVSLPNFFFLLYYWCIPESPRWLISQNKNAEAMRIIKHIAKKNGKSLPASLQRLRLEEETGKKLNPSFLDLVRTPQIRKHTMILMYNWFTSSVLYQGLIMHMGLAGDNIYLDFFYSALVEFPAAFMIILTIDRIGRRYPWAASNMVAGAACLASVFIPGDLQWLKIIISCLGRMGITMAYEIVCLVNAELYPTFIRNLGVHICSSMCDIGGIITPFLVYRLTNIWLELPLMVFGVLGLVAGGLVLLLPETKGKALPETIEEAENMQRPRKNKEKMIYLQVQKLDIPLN

SMILES | % Inhibition of OCT2-dependent MPP+ uptake at 20 µM (mean ± SEM) (OCT2 [1]; [3]) | % Inhibition of OCT2-dependent MPP+ uptake at 200 µM (mean ± SEM) (OCT2 [1]; [4]) | % Inhibition of OCT2-dependent MF uptake at 20 µM (mean ± SEM) (OCT2 [2]) | % Inhibition of OCT2-dependent MF uptake at 200 µM (mean ± SEM) (OCT2 [2]) | % Inhibition of OCT2-dependent MPP+ uptake at 20 µM (mean ± SEM) (OCT2 [1]; human, pH 7.3) | % Inhibition of OCT2-dependent MPP+ uptake at 200 µM (mean ± SEM) (OCT2 [1]; human, pH 7.3)
O=C1Nc2ccc(Cl)cc2C(c2ccccc2Cl)=NC1O (stereo not drawn) [Lorazepam] | 0.3 ± 5.1% | 17.7 ± 7.3% | 32.0 ± 2.2 | 96.5 ± 1.0 |  | 
CCOC(=O)[C@H](CCc1ccccc1)N[C@@H](C)C(=O)N1[C@H](C(=O)O)C[C@@H]2CCC[C@@H]21 [Ramipril] | 72.5 ± 7.4% | 83.6 ± 6.2% | 12.9 ± 4.1 | 35.4 ± 2.9 |  | 
C[C@]12C=CC(=O)C=C1CC[C@@H]1[C@@H]2[C@@H](O)C[C@@]2(C)[C@H]1CC[C@]2(O)C(=O)CO [Prednisolone] | 42.1 ± 4.4% | 68.6 ± 2.8% | 66.0 ± 2.5 | 91.5 ± 0.5 |  | 
CCC1=C(C)CN(C(=O)NCCc2ccc(S(=O)(=O)NC(=O)N[C@H]3CC[C@H](C)CC3)cc2)C1=O [Glimepiride] | 31.1 ± 7.6% | 53.8 ± 15.2% | 66.8 ± 2.9 | 65.6 ± 4.6 |  | 
N[C@@H](Cc1ccc(O)c(O)c1)C(=O)O [Levodopa] | -24.6 ± 0.5% | 11.8 ± 1.4% | -9.3 ± 6.8 | 67.3 ± 2.6 |  | 
CC(C)NCC(O)COc1ccc(COCCOC(C)C)cc1 (stereo not drawn) [Bisoprolol] | -16.1 ± 2.2% | 11.8 ± 5.5% | 57.2 ± 4.0% | 75.8 ± 4.5% |  | 
CCOC(=O)[N-]c1cn(N2CCOCC2)n[o+]1 [Molsidomine] | -1.7 ± 8.3% | 3.8 ± 4.9% | 41.4 ± 3.6 | 69.5 ± 1.7 |  | 
Cc1nc2n(c(=O)c1CCN1CCC(c3noc4cc(F)ccc34)CC1)CCCC2 [Risperidone] | 57.8 ± 5.2% | 78.4 ± 1.5% | 81.0 ± 4.4 | 98.3 ± 3.1 |  | 
O=C1CN=C(c2ccccn2)c2cc(Br)ccc2N1 [Bromazepam] |  |  | 27.6 ± 2.6% | 77.9 ± 1.4% | -16.3 ± 9.0% | 14.7 ± 8.3%
Cc1cccc(C)c1NC(=O)c1cc(S(N)(=O)=O)c(Cl)cc1O [Xipamide] | 10.5 ± 3.7% | 6.6 ± 9.3% | -22.3 ± 9.7 | 9.4 ± 9.2 |  | 
CCOC(=O)C1=C(C)NC(C)=C(C(=O)OC)C1c1cccc(Cl)c1Cl (stereo not drawn) [Felodipine] | -8.8 ± 12.0% | -16.8 ± 10.8% | 4.9 ± 6.1 | 15.9 ± 12.1 |  | 
Nc1nc(N)c2nc(-c3ccccc3)c(N)nc2n1 [Triamterene] | 6.6 ± 11.2% | 17.5 ± 3.8% | 48.0 ± 5.1 | 92.0 ± 2.1 |  | 

From paper PMC4556614 (PLoS ONE, 2015)
